The text below walks through data of US20240300991A1, “NUCLEOSIDE DERIVATIVE HAVING MULTI-TARGET KINASE INHIBITORY ACTIVITY AND PHARMACEUTICAL COMPOSITION FOR PREVENTING AND TREATING CANCER COMPRISING SAME” (FUTURE MEDICINE CO., LTD., priority 2021, published 2024).

For test [1], the system named is SK-Hep-1 (liver cancer cells). The experiment in a line: Inhibitory activity against cancer cells (sulforhodamine B staining). It is filed as cell-based. The conditions noted are these: 3 days, SRB staining. The gist of the method: (§1)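 Cells pre-incubated 1 day (day-0 reference), then exposed to test compound 3 days. Sulforhodamine B staining (0.4% SRB, 1% acetic acid), dye dissolved in 10 mM Tris pH 10.0, absorbance at 515 nm. Cell division % relative to day 0 and control; IC50 by non-linear regression.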
On the technique in general: The SRB assay estimates cell density from bound dye.

In test [2] the test system is SNU638 (stomach cancer cells). The description is as above. Type of test: cell-based. The conditions noted are these: 3 days, SRB staining. The gist of the method:
as §1

In test [3] the test system is MDA-MB-231 (breast cancer cells). The description is as above. It is filed as cell-based. The conditions noted are these: 3 days, SRB staining. An outline of the steps:
as §1

Another test relates to A549 (lung cancer cells). The description is as above. Type of test: cell-based. The conditions noted are these: 3 days, SRB staining. The gist of the method:
as §1

Test [4] deals with HCT116 (colon cancer cells). Described as above. To be noted: 3 days, SRB staining. It is filed as cell-based. An outline of the steps:
as §1

Test [5] relates to PC-3 (prostate cancer cells). The test is described as above. To be noted: 3 days, SRB staining. Type of test: cell-based. An outline of the steps:
as §1

A further test concerns the target T1, CSNK1D (Homo sapiens, UniProt P48730).
T1 construct: made in house
The experiment in a line: Kinase inhibition test (DNA-tagged kinase, affinity resin, qPCR readout). Type of test: binding. On the set-up: key: (−) indicates no effect; (+) indicates weak inhibitory activity; (++) indicates a moderate level of inhibitory activity; (+++) indicates strong inhibitory activity. The conditions noted are these: 1 μM of compound. An outline of the steps: (§2)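 Competition binding: DNA-tagged kinases (phage/E. coli or HEK-293 produced) with immobilized biotinylated ligand and test compound in DMSO, 1 h at room temperature. After washing, bound kinase eluted with 0.5 μM non-biotinylated ligand and quantified by qPCR.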
(In general: In qPCR the cycle at which signal appears reflects the starting amount.)

In the next test the target is T2, DYRK1A (Homo sapiens, UniProt Q13627).
T2 construct: made in house
The description is as above. It is filed as binding. Also noted: key: (−) indicates no effect; (+) indicates weak inhibitory activity; (++) indicates a moderate level of inhibitory activity; (+++) indicates strong inhibitory activity. The conditions noted are these: 1 μM of compound. An outline of the steps:
as §2

The next test has as its target T3, NTRK1 (Homo sapiens, UniProt P04629).
T3 construct: made in house
The description is as above. It is filed as binding. On the set-up: key: (−) indicates no effect; (+) indicates weak inhibitory activity; (++) indicates a moderate level of inhibitory activity; (+++) indicates strong inhibitory activity. To be noted: 1 μM of compound. The gist of the method: as §2

The next test addresses T4, FLT3 (Homo sapiens, UniProt P36888).
T4 construct: made in house
T4 sequence (P36888 27-993): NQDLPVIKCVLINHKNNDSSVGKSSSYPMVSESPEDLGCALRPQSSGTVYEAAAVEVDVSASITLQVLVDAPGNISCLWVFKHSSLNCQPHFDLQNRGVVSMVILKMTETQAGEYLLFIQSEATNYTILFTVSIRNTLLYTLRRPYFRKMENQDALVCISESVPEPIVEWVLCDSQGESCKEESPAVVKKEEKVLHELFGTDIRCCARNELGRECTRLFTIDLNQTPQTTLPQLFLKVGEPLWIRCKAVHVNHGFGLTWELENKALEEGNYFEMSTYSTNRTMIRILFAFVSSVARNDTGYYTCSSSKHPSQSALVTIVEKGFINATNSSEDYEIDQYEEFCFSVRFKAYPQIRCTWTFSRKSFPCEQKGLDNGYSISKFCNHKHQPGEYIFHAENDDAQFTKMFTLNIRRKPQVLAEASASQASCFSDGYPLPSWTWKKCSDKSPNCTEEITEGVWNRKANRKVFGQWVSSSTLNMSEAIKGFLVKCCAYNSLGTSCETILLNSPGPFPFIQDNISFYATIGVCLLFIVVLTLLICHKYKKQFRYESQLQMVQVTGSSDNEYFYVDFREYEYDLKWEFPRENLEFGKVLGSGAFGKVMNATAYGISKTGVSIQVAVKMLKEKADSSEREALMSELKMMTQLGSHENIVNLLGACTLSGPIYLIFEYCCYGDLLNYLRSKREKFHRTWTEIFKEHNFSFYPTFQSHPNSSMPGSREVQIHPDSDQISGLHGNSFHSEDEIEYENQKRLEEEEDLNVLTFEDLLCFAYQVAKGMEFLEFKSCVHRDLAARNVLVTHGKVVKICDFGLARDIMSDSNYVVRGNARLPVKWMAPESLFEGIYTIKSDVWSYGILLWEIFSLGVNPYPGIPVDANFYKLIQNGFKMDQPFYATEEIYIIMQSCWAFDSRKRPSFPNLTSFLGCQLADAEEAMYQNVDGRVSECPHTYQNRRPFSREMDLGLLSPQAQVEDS
Described as above. Type of test: binding. On the set-up: key: (−) indicates no effect; (+) indicates weak inhibitory activity; (++) indicates a moderate level of inhibitory activity; (+++) indicates strong inhibitory activity. The conditions noted are these: 1 μM of compound. The gist of the method:
as §2

The target in another test is T5, DYRK1B (Homo sapiens, UniProt Q9Y463).
T5 construct: made in house
T5 sequence (Q9Y463 whole entry): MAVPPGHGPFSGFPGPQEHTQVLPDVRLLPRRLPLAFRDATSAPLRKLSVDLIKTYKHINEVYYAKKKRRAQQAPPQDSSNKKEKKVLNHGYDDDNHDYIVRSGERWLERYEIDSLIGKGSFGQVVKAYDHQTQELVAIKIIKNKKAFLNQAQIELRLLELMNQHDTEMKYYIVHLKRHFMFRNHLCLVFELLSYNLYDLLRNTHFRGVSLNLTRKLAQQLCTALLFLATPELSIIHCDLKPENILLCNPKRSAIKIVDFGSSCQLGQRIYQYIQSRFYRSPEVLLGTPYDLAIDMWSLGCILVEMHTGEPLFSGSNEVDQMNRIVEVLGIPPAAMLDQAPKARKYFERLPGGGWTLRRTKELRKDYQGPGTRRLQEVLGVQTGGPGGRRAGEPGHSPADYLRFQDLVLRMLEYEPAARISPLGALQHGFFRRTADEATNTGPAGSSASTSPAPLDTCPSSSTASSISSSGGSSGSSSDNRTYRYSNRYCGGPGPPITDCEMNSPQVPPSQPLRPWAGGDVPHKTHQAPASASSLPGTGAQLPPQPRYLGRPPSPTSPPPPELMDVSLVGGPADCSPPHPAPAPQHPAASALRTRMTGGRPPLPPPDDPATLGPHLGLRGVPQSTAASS
The description is as above. Type of test: binding. Also noted: key: (−) indicates no effect; (+) indicates weak inhibitory activity; (++) indicates a moderate level of inhibitory activity; (+++) indicates strong inhibitory activity. The conditions noted are these: 1 μM of compound. The gist of the method:
as §2

T1 sequence (P48730 whole entry): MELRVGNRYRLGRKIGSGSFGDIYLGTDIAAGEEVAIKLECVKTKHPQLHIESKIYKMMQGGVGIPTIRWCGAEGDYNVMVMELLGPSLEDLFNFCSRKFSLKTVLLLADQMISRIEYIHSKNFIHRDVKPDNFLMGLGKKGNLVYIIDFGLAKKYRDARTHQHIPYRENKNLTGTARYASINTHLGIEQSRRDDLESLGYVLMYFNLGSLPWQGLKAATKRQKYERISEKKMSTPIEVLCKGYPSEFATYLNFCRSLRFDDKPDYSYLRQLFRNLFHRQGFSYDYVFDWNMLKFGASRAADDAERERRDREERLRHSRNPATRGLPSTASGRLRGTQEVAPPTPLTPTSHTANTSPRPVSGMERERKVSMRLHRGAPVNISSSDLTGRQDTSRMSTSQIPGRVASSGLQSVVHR
T3 sequence (P04629 33-796): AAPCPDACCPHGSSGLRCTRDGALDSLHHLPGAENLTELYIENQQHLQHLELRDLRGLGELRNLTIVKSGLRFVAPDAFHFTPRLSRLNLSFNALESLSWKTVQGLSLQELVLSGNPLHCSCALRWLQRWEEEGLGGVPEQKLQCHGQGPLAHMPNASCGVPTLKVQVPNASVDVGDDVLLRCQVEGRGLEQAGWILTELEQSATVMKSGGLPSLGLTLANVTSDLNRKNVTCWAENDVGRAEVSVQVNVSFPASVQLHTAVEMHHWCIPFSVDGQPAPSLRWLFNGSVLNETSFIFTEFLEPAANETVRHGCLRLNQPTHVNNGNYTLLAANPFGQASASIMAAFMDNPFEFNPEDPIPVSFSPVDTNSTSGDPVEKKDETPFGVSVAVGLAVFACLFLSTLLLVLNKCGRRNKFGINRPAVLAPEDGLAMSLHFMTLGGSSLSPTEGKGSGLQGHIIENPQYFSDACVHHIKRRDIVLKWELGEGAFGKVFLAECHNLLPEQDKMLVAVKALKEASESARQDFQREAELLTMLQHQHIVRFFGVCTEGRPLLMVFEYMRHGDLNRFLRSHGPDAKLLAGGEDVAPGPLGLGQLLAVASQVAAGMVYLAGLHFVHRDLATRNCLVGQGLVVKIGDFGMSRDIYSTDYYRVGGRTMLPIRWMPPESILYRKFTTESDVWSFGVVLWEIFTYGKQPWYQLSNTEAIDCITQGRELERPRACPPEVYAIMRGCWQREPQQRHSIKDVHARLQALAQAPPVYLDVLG

Regarding `C#Cc1cn([C@@H]2S[C@H](CNC(=O)c3ccccc3)[C@@H](O)[C@H]2O)c2ncnc(N)c12` [Compound 8b], the half-inhibitory concentration (IC50) in [1] was found to be 21.2 µM; in test [2] it was 23.3 µM; in test [3], 32.4 µM; in the test on A549 (lung cancer cells) it was 28.6 µM; in [4], 26.3 µM; in test [5], 29.1 µM. Also, the CSNK1D inhibitory activity result at CSNK1D is “++”. Moreover, at DYRK1A, the DYRK1A inhibitory activity result is reported as “+++”. Besides, the NTRK1 inhibitory activity result at NTRK1 is reported as “+++”. Also, at FLT3, the FLT3 inhibitory activity entry is on record as “++”. Further, the DYRK1B inhibitory activity entry at DYRK1B was “+++”.
Regarding `C#Cc1cn([C@@H]2S[C@H](CN)[C@@H](O)[C@H]2O)c2ncnc(N)c12` [Compound 10a], the IC50 turned out to be 1.4 µM in test [1]; 1.33 µM in test [2]; 1.87 µM in test [3]; 1.58 µM in the test with A549 (lung cancer cells); 1.35 µM in test [4]; 1.98 µM in [5]. In addition, at CSNK1D, the CSNK1D inhibitory activity entry is listed as “+++”. Also, the DYRK1A inhibitory activity result on DYRK1A is “+++”. Moreover, at NTRK1, the NTRK1 inhibitory activity entry is given as “+++”. At FLT3, the FLT3 inhibitory activity result is given as “+++”. Besides, the DYRK1B inhibitory activity result at DYRK1B was “++”.

The term IC50 denotes the midpoint of a concentration-inhibition curve.
